Patent publication US10745382B2 (BRISTOL-MYERS SQUIBB COMPANY, priority 2015, dated 2020)

Molecular target: T1, PD-1/PD-L1 (Homo sapiens, UniProt Q9NZQ7)
T1 construct: made in house; host or cells: HEK293T
Assay: PD-1/PD-L1 Homogenous Time-Resolved Fluorescence (HTRF) binding assay
Settings: PD-L1-His 10 nM, PD-1-Ig 20 nM; numeric IC50; read-out: Range or IC50
Outline: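 dPBS + 0.1% BSA + 0.05% Tween-20 buffer; Eu-cryptate anti-Ig 1 nM final, APC anti-His 20 nM final; HTRF read. Counter-assays: PD-1-Ig/PD-L2-His 20 & 5 nM, CD80-His/PD-L1-Ig 100 & 10 nM.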

T1 sequence (Q9NZQ7 with tags, fused parts or gaps): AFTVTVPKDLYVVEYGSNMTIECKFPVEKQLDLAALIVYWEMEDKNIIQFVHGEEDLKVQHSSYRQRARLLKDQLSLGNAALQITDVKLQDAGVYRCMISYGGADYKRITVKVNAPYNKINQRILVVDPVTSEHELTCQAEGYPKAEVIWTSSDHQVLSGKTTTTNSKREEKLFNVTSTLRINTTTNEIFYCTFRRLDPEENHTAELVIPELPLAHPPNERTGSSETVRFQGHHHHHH

`CC(=O)N[C@H]1CCN(CCCOc2cccc(-c3c(Cl)ccc(COc4cc(OCc5cncc(C#N)c5)c(CNC(C)(CO)CO)cc4Cl)c3Cl)c2C)C1` [Example 2094, N-((3S)-1-(3-((2′,6′-dichloro-3′-((2-chloro-5-((5-cyanopyridin-3-yl)methoxy)-4-(((1,3-dihydroxy-2-methylpropan-2-yl)amino)methyl)phenoxy)methyl)-2-methyl-[1,1′-biphenyl]-3-yl)oxy)propyl)pyrrolidin-3-yl)acetamide] showed an IC50 of 6 nM.

Same assay, conditions: PD-L1-His 10 nM, PD-1-Ig 20 nM; value given as range class; read-out: Range or IC50

`Cc1c(COc2cc(OCc3cncc(C#N)c3)c(C=O)cc2Cl)cccc1-c1cccc(OCCCN2CCC(O)(C(=O)O)CC2)c1C` [Example 2385, 1-(3-((3′-((2-chloro-5-((5-cyanopyridin-3-yl)methoxy)-4-formylphenoxy)methyl)-2,2′-dimethyl-[1,1′-biphenyl]-3-yl)oxy)propyl)-4-hydroxypiperidine-4-carboxylic Acid] and `CC(=O)N[C@@H]1CCN(CCCOc2cccc(-c3cccc(COc4cc(OCc5cncc(C#N)c5)c(CO)cc4Cl)c3C)c2C)C1` [Example 2276, N-((3R)-1-(3-(3′-((2-chloro-5-((5-cyanopyridin-3-yl)methoxy)-4-(hydroxymethyl)phenoxy)methyl)-2,2′-dimethylbiphenyl-3-yloxy)propyl)pyrrolidin-3-yl)acetamide] fall in the same range of IC50: 0.21 to 10 nM for the first, 0.21 to 10 nM for the second.

`CCN(CC)C(=O)C1CCCN(CCCOc2cccc(-c3cccc(COc4cc(OCc5cncc(C#N)c5)c(CN5CCCC[C@H]5C(=O)O)cc4Cl)c3C)c2C)C1` (stereo partly drawn) [Example 2208, (2S)-1-(5-chloro-2-((5-cyanopyridin-3-yl)methoxy)-4-((3′-(3-(3-(diethylcarbamoyl)piperidin-1-yl)propoxy)-2,2′-dimethylbiphenyl-3-yl)methoxy)benzyl)piperidine-2-carboxylic Acid] and `CC(=O)N[C@@H]1CCN(CCCOc2cccc(-c3cccc(COc4cc(OCc5cncc(C#N)c5)c(CN5CCCC[C@H]5C(=O)O)cc4Cl)c3C)c2C)C1` [Example 2250, (2S)-1-(4-((3′-(3-((R)-3-acetamidopyrrolidin-1-yl)propoxy)-2,2′-dimethylbiphenyl-3-yl)methoxy)-5-chloro-2-((5-cyanopyridin-3-yl)methoxy)benzyl)piperidine-2-carboxylic Acid] fall in the same range of IC50: 0.21 to 10 nM for the first, 0.21 to 10 nM for the second.

`Cc1c(COc2cc(OCc3cncc(C#N)c3)c(CN[C@H](CO)C(=O)O)cc2Cl)cccc1-c1cccc(OCCCN2CCC(O)(C(=O)O)CC2)c1` [Example 1033, (R)-1-(3-((3′-((4-(((1-carboxy-2-hydroxyethyl)amino)methyl)-2-chloro-5-((5-cyanopyridin-3-yl)methoxy)phenoxy)methyl)-2′-methyl-[1,1′-biphenyl]-3-yl)oxy)propyl)-4-hydroxypiperidine-4-carboxylic Acid] and `Cc1c(COc2cc(OCc3cncc(C#N)c3)c(CN[C@H](CO)C(=O)O)cc2Cl)cccc1-c1cccc(OCCC(=O)N2CC[C@@H](O)C2)c1` [Example 1009, (R)-2-((5-chloro-2-((5-cyanopyridin-3-yl)methoxy)-4-((3′-(3-((R)-3-hydroxypyrrolidin-1-yl)-3-oxopropoxy)-2-methyl-[1,1′-biphenyl]-3-yl)methoxy)benzyl)amino)-3-hydroxypropanoic Acid] fall in the same range of IC50: 0.21 to 10 nM for the first, 0.21 to 10 nM for the second.

`Cc1c(COc2cc(OCc3cncc(C#N)c3)c(CNC(CO)CO)cc2Cl)cccc1-c1cccc(C(=O)NCCN2CCCC2)c1C` [Example 4003, 3′-((2-chloro-5-((5-cyanopyridin-3-yl)methoxy)-4-(((1,3-dihydroxypropan-2-yl)amino)methyl)phenoxy)methyl)-2,2′-dimethyl-N-(2-(pyrrolidin-1-yl)ethyl)-[1,1′-biphenyl]-3-carboxamide] and `CNC(=O)c1cccc(-c2cccc(COc3cc(OCc4cncc(C#N)c4)c(CNC(CO)CO)cc3Cl)c2C)c1C` [Example 4015, 3′-((2-chloro-5-((5-cyanopyridin-3-yl)methoxy)-4-(((1,3-dihydroxypropan-2-yl)amino)methyl)phenoxy)methyl)-N,2,2′-trimethyl-[1,1′-biphenyl]-3-carboxamide] fall in the same range of IC50: 0.21 to 10 nM for the first, 0.21 to 10 nM for the second.

`Cc1c(COc2cc(OCc3cncc(S(C)(=O)=O)c3)c(CN3CCCC[C@H]3C(=O)O)cc2Cl)cccc1-c1cccc(OCCCN2CC(O)C(C(=O)O)C2)c1C` (stereo partly drawn) [Example 1074, (2S)-1-(4-((3′-(3-(3-carboxy-4-hydroxypyrrolidin-1-yl)propoxy)-2,2′-dimethyl-[1,1′-biphenyl]-3-yl)methoxy)-5-chloro-2-((5-(methylsulfonyl)pyridin-3-yl)methoxy)benzyl)piperidine-2-carboxylic Acid] and `Cc1c(COc2cc(OCc3cncc(C#N)c3)c(CN3CCCC[C@H]3C(=O)O)cc2Cl)cccc1-c1cccc(OCCCN2CCC(C(=O)O)CC2)c1C` [Example 2364, (S)-1-(4-((3′-(3-(4-carboxypiperidin-1-yl)propoxy)-2,2′-dimethyl-[1,1′-biphenyl]-3-yl)methoxy)-5-chloro-2-((5-cyanopyridin-3-yl)methoxy)benzyl)piperidine-2-carboxylic Acid] fall in the same range of IC50: 0.21 to 10 nM for the first, 0.21 to 10 nM for the second.

First: Cc1c(COc2cc(OCc3cncc(C#N)c3)c(CN3CCCC[C@H]3C(=O)O)cc2Cl)cccc1-c1cccc(OCCCN(C)CCc2ccccc2)c1C [Example 2218, (2S)-1-(5-chloro-2-((5-cyanopyridin-3-yl)methoxy)-4-((2,2′-dimethyl-3′-(3-(methyl(phenethyl)amino)propoxy)biphenyl-3-yl)methoxy)benzyl)piperidine-2-carboxylic Acid]
Second: CCNC(=O)c1cccc(-c2cccc(COc3cc(OCc4cncc(C#N)c4)c(CN4CCC[C@H]4C(=O)O)cc3Cl)c2C)c1C [Example 4007, (5-chloro-2-((5-cyanopyridin-3-yl)methoxy)-4-((3′-(ethylcarbamoyl)-2,2′-dimethyl-[1,1′-biphenyl]-3-yl)methoxy)benzyl)-L-proline]
The IC50 of the first is lower: 0.21 to 10 nM for the first, 100 to 2000 nM for the second. The first is the more potent here.

`Cc1c(COc2cc(OCc3cncc(C#N)c3)c(CNC(C)(CO)CO)cc2Cl)cccc1-c1cccc(OCCCNC(=O)Cc2ccccn2)c1Cl` [Example 2089, N-(3-((2-chloro-3′-((2-chloro-5-((5-cyanopyridin-3-yl)methoxy)-4-(((1,3-dihydroxy-2-methylpropan-2-yl)amino)methyl)phenoxy)methyl)-2′-methyl-[1,1′-biphenyl]-3-yl)oxy)propyl)-2-(pyridin-2-yl)acetamide] and `Cc1c(COc2cc(OCc3cncc(C#N)c3)c(CN[C@@H](CO)C(=O)O)cc2Cl)cccc1-c1cccc(OCCCNC[C@H](O)CO)c1Cl` [Example 2004, (S)-2-((5-chloro-4-((2′-chloro-3′-(3-(((S)-2,3-dihydroxypropyl)amino)propoxy)-2-methyl-[1,1′-biphenyl]-3-yl)methoxy)-2-((5-cyanopyridin-3-yl)methoxy)benzyl)amino)-3-hydroxypropanoic Acid] fall in the same range of IC50: 0.21 to 10 nM for the first, 0.21 to 10 nM for the second.

`Cc1c(COc2cc(OCc3cncc(C#N)c3)c(CN[C@@](C)(CO)C(=O)O)cc2Cl)cccc1-c1cccc(O[C@H](C)CCN2CC[C@@H](O)C2)c1Cl` [Example 1524] and `Cc1c(COc2cc(OCc3cncc(C#N)c3)c(CN[C@@](C)(CO)C(=O)O)cc2Cl)cccc1-c1cccc(OCCCN2CCC(O)C2)c1C` (stereo in doubt) [Example 3003, (S)-2-((5-chloro-2-((5-cyanopyridin-3-yl)methoxy)-4-((3′-(3-((R)-3-hydroxypyrrolidin-1-yl)propoxy)-2,2′-dimethyl-[1,1′-biphenyl]-3-yl)methoxy)benzyl)amino)-3-hydroxy-2-methylpropanoic Acid] fall in the same range of IC50: 0.21 to 10 nM for the first, 0.21 to 10 nM for the second.

Compared with `CCN(CC)C(=O)c1cccc(-c2cccc(COc3cc(OCc4cncc(C#N)c4)c(CNC(CO)CO)cc3Cl)c2C)c1C` [Example 4044, 3′-((2-chloro-5-((5-cyanopyridin-3-yl)methoxy)-4-(((1,3-dihydroxypropan-2-yl)amino)methyl)phenoxy)methyl)-N,N-diethyl-2,2′-dimethyl-[1,1′-biphenyl]-3-carboxamide], `CO[C@@H]1CCN(CCCOc2cccc(-c3cccc(COc4cc(OCc5cncc(C#N)c5)c(CO)cc4Cl)c3C)c2C)C1` [Example 2277, 5-((4-chloro-2-(hydroxymethyl)-5-((3′-(3-((R)-3-methoxypyrrolidin-1-yl)propoxy)-2,2′-dimethylbiphenyl-3-yl)methoxy)phenoxy)methyl)nicotinonitrile] is lower in IC50: 100 to 2000 nM for the first, 0.21 to 10 nM for the second.

`CC(=O)N[C@@H]1CCN(CCCOc2cccc(-c3cccc(COc4cc(OCc5cncc(C#N)c5)c(CN[C@](C)(CO)C(=O)O)cc4Cl)c3C)c2Cl)C1` [Example 2022, (R)-2-((4-((3′-(3-((R)-3-acetamidopyrrolidin-1-yl)propoxy)-2′-chloro-2-methyl-[1,1′-biphenyl]-3-yl)methoxy)-5-chloro-2-((5-cyanopyridin-3-yl)methoxy)benzyl)amino)-3-hydroxy-2-methylpropanoic Acid] and `CN(CCCOc1cccc(-c2cccc(COc3cc(OCc4cncc(C#N)c4)c(CN[C@](C)(CO)C(=O)O)cc3Cl)c2Cl)c1Cl)C[C@H](O)CO` [Example 2064, (R)-2-((5-chloro-2-((5-cyanopyridin-3-yl)methoxy)-4-((2,2′-dichloro-3′-(3-(((S)-2,3-dihydroxypropyl)(methyl)amino)propoxy)-[1,1′-biphenyl]-3-yl)methoxy)benzyl)amino)-3-hydroxy-2-methylpropanoic Acid] fall in the same range of IC50: 0.21 to 10 nM for the first, 0.21 to 10 nM for the second.

`Cc1c(COc2cc(OCc3cncc(C#N)c3)c(CN(CCC(F)(F)F)C(CO)CO)cc2Cl)cccc1-c1cccc(OCCCN2CCC(O)(CO)CC2)c1Cl` [Example 2074, 5-((4-chloro-5-((2′-chloro-3′-(3-(4-hydroxy-4-(hydroxymethyl)piperidin-1-yl)propoxy)-2-methyl-[1,1′-biphenyl]-3-yl)methoxy)-2-(((1,3-dihydroxypropan-2-yl)(3,3,3-trifluoropropyl)amino)methyl)phenoxy)methyl)nicotinonitrile] showed an IC50 of 0.21 to 10 nM.
